Earlier results in patent US7968545B2 (priority 2003, dated 2011).

Assays:
[1] = human, in vivo
[2] = in vivo
[3] = in vivo; remark: listed apart in the source

| Compound | share of patients in whom it works [1] [%] | success rate for the treatment of pain [2] [%] | reduction of infarct size [3] |
| --- | --- | --- | --- |
| NCC1(CC(=O)O)CCCCC1 [Gabapentin] | 60 |  |  |
| CSCC[C@@H]1NC(=O)[C@H](CC(C)C)NC(=O)[C@H](CCCNC(=N)N)NC(=O)[C@H](CO)NC(=O)[C@@H]2CSSC[C@@H]3NC(=O)[C@H](CO)NC(=O)CNC(=O)[C@H]([C@@H](C)O)NC(=O)[C@H](CSSC[C@H](N)C(=O)N[C@@H](CCCCN)C(=O)NCC(=O)N[C@@H](CCCCN)C(=O)NCC(=O)N[C@@H](C)C(=O)N[C@@H](CCCCN)C(=O)N2)NC(=O)[C@H](CSSC[C@@H](C(N)=O)NC(=O)[C@H](CCCCN)NC(=O)CNC(=O)[C@H](CO)NC(=O)[C@H](CCCNC(=N)N)NC3=O)NC(=O)[C@H](CC(=O)O)NC(=O)[C@H](Cc2ccc(O)cc2)NC1=O [Ziconotide, ω-conotoxin-MVIIA] |  | 85 | effective in reducing infarct size |
